From patent US6583143B2, “CRF receptor antagonists and methods relating thereto” (Neurocrine Biosciences, Inc., priority 2000, dated 2003) come the findings set out here.

pKi: −log10 of the molar value.

For this experiment, the target named is T1, human CRF receptors (Homo sapiens, UniProt P34998).
T1 construct: expressed in transfected cells; membrane suspension of stably transfected cells
T1 sequence (P34998 24-415): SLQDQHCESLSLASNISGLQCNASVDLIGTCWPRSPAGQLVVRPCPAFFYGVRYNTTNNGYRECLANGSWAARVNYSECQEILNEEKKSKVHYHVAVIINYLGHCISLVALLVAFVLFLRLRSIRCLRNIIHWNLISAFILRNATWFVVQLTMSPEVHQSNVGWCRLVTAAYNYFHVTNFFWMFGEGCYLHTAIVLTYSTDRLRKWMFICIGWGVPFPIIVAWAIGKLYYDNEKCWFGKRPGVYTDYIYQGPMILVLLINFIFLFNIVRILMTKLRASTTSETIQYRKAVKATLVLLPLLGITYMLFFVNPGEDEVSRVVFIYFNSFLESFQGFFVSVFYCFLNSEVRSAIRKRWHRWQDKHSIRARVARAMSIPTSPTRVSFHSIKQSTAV
Nature of the experiment: CRF receptor radioligand binding assay (displacement of [125I]tyrosine-ovine CRF). The conditions noted are these: CRF receptor binding affinity, assayed by the methods of Example 9. An excerpt:
The effectiveness of a compound as a CRF receptor antagonist may be determined by various assay methods. Suitable CRF antagonists of this invention are capable of inhibiting the specific binding of CRF to its receptor and antagonizing activities associated with CRF. A compound of structure (I) may be assessed for activity as a CRF antagonist by one or more generally accepted assays for this purpose, including (but not limited to) the assays disclosed by DeSouza et al. (J. Neuroscience 7:88, 1987) and Battaglia et al. (Synapse 1:572, 1987). […] CRF receptor affinity may be determined by binding studies that measure the ability of a compound to inhibit the binding of a radiolabeled CRF (e.g., [^125I]tyrosine-CRF) to its receptor (e.g., receptors prepared from rat cerebral cortex membranes). […]
The compounds of this invention may be evaluated for binding activity to the CRF receptor by a standard radioligand binding assay as generally described by DeSouza et al. (J. Neurosci. 7:88-100, 1987). […]
More specifically, the binding assay is performed in 1.5 ml Eppendorf tubes using approximately 1×10^6 cells per tube stably transfected with human CRF receptors. […] Following two washes of the pellets, the tubes are cut just above the pellet and monitored in a gamma counter for radioactivity at approximately 80% efficiency. […]

`CCCC(CCC)N1N=C(C)n2nc(-c3ccc(OC)cc3C)c3nc(C)cc1c32` [Compound 8-3] had a negative-log Ki (pKi) above 7.00.
